Test results: ChEMBL document CHEMBL1201862, “PubChem BioAssay data set” (2004)
Calls of active or inactive are those of the source.

Legend:
Vero [1] = assay: cells; type: functional; details: Chlorocebus sabaeus
Vero [2] = assay: cells; type: functional, cell-based; details: Chlorocebus sabaeus
Vero [3] = assay: mammalian cell viability reduction – secondary assay, cytotoxicity control for West Nile virus antiviral project, dose response (AID 1650); type: functional; details: Chlorocebus sabaeus
[4] = viability of uninfected HEp-2 cells – cell-based, HTS, cytotoxicity control for RSV inhibitor project, dose response (AID 2410); type: functional; details: human respiratory syncytial virus
Cytochrome P450 1A2 = molecular target: T1, Cytochrome P450 1A2 (Homo sapiens, UniProt P05177);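 further: PubChem cytochrome P450 panel assay, CYP1A2 panel member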
T1 sequence (P05177 whole entry): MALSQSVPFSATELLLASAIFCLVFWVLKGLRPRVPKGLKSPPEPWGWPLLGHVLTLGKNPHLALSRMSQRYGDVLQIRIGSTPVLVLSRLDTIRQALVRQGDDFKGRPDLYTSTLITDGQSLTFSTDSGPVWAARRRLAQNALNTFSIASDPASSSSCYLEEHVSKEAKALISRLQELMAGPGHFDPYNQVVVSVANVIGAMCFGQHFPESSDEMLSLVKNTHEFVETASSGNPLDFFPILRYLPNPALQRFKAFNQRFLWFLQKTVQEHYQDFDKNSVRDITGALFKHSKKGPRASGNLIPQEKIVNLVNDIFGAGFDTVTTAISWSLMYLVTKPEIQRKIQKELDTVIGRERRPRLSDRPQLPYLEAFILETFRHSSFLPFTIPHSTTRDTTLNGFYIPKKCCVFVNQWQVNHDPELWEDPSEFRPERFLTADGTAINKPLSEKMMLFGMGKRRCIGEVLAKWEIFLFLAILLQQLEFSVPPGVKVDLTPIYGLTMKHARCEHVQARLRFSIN

Cytochrome P450 2C19 = Cytochrome P450 2C19 (Homo sapiens, UniProt P33261); assay: Cytochrome panel assay with activity outcomes. Panel member name: p450-cyp2c19 Compounds with AC50 equal or less than 10 uM are considered active; type: functional
SUMO-activating enzyme [5] = molecular target: T2, SUMO-activating enzyme (Homo sapiens, UniProt Q9UBT2); assay: blockers of UBC9-mediated SUMO conjugation – biochemical, AlphaScreen, SUMOylation inhibitor project, confirmation (AID 2018); type: functional
[6] = molecular target: T3, Mannose-6-phosphate isomerase (Homo sapiens, UniProt P34949); assay: MPI inhibition at elevated mannose 6-phosphate – biochemical, fluorescence intensity, high mannose 6-phosphate, primary screen (AID 1220)
T3 sequence (P34949 whole entry): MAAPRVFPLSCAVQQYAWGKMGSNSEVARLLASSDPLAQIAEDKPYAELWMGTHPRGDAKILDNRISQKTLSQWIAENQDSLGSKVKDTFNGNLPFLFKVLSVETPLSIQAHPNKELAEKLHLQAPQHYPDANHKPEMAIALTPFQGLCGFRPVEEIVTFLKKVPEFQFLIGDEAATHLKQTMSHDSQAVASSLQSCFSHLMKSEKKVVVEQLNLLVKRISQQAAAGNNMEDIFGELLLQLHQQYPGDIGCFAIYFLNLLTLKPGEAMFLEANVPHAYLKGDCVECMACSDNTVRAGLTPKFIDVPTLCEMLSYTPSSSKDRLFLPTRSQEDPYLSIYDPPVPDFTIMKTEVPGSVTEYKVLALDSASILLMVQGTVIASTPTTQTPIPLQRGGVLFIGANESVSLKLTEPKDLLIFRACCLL

SUMO-activating enzyme [7] = molecular target: T2, SUMO-activating enzyme; assay: blockers of SAE1/SAE2–UBC9 SUMO transfer – biochemical, HTRF, uHTS, primary screen (AID 2006); type: protein-complex assay
Fatty acid synthase [8] = molecular target: T4, Fatty acid synthase (Homo sapiens, UniProt P49327); assay: inhibition of human FAS-TE enzyme activity – biochemical, endpoint fluorescence intensity, uHTS hits, dose response (AID 624327); type: functional;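 further: fluorescence from hydrolysis of an O-methyl fluorescein acyl ester substrate by the enzyme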
HEK293 [9] = assay: cells; details: Homo sapiens
Protein RecA = molecular target: T5, Protein RecA (Mycobacterium tuberculosis, UniProt P9WHJ3); assay: Fluorescence Cell-Free Homogeneous Dose Retest to Identify Inhibitors of RecA-Intein Splicing Activity. [Related pubchem assays (depositor defined):AID2097, AID2223, AID489010, AID492950]; type: functional
T5 sequence (P9WHJ3 whole entry): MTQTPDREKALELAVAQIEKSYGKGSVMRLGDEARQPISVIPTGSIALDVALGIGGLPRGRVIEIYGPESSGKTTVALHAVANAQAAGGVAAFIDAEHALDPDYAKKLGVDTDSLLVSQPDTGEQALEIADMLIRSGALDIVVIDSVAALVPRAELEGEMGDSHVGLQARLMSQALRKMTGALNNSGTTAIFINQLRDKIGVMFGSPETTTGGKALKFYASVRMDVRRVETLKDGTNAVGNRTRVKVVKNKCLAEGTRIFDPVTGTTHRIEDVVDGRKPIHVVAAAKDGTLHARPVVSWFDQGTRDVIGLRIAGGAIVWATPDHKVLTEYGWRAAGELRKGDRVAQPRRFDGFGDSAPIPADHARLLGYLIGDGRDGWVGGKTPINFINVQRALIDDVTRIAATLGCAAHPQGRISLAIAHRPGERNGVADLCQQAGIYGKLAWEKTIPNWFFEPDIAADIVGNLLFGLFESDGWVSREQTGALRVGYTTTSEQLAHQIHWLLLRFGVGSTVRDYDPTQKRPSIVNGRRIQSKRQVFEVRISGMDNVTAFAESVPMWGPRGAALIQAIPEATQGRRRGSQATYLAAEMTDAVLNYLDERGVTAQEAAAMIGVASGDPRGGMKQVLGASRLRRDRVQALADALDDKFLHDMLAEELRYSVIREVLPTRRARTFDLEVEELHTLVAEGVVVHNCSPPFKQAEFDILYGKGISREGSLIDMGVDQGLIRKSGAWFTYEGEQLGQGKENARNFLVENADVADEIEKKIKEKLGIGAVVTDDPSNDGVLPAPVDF

HEK293 [10] = assay: cells; details: Homo sapiens; remark: listed apart in the source
[11] = molecular target: T6, Replicative DNA helicase DnaB (Mycobacterium tuberculosis, UniProt P9WMR3); assay: DnaB intein splicing inhibitors, dose response, biochemical, cell-free fluorescence (AID 449749); type: functional
T6 sequence (P9WMR3 whole entry): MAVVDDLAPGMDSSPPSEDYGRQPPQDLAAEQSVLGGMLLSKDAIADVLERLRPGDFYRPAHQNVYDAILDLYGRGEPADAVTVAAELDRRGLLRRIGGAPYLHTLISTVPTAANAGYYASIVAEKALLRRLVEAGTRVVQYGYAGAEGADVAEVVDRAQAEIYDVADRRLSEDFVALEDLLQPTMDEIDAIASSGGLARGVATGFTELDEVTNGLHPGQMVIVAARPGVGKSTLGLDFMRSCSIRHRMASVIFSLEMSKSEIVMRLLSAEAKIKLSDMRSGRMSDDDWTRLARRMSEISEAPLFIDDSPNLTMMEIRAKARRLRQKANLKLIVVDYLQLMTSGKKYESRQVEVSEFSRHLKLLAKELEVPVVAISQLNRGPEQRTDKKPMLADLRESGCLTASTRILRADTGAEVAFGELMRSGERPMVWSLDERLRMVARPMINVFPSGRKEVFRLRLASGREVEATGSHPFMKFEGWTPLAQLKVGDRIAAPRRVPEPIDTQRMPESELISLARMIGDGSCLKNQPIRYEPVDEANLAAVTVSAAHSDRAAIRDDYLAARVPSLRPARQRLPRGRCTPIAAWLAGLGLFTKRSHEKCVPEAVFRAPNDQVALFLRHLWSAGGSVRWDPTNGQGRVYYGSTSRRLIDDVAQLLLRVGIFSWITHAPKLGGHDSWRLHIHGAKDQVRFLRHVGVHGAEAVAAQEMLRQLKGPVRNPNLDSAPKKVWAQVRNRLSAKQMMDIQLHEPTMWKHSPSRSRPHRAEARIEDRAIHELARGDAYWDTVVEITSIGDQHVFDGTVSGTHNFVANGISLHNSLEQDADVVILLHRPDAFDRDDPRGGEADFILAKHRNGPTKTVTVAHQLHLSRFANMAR

Fatty acid synthase [12] = molecular target: T4, Fatty acid synthase; assay: inhibition of human FAS-TE enzyme activity – biochemical, kinetic fluorescence intensity, dose response (AID 624326); type: functional;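 further: rate of fluorescence rise from hydrolysis of a fluorogenic O-methyl fluorescein ester substrate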
[13] = molecular target: 5-hydroxytryptamine receptor 5A (Homo sapiens, UniProt P47898); assay: Counterscreen for agonists of OPRM1-OPRD1 heterodimerization: luminescence-based cell-based high throughput dose response assay to identify agonists of 5-hydroxytryptamine (serotonin) 5A receptor (HTR5A). [Related pubchem assays (depositor defined):AID504326, AID504355, AID504692, AID504904, AID504905]; type: functional
[14] = molecular target: T7, Short transient receptor potential channel 4 (Mus musculus, UniProt Q9QUQ5); assay: calcium entry via TRPC4 opening agents – cell-based, HEK293 TRPC4/mu-opioid, Fluo-4 calcium, dose response (AID 434937); type: functional
T7 sequence (Q9QUQ5 whole entry): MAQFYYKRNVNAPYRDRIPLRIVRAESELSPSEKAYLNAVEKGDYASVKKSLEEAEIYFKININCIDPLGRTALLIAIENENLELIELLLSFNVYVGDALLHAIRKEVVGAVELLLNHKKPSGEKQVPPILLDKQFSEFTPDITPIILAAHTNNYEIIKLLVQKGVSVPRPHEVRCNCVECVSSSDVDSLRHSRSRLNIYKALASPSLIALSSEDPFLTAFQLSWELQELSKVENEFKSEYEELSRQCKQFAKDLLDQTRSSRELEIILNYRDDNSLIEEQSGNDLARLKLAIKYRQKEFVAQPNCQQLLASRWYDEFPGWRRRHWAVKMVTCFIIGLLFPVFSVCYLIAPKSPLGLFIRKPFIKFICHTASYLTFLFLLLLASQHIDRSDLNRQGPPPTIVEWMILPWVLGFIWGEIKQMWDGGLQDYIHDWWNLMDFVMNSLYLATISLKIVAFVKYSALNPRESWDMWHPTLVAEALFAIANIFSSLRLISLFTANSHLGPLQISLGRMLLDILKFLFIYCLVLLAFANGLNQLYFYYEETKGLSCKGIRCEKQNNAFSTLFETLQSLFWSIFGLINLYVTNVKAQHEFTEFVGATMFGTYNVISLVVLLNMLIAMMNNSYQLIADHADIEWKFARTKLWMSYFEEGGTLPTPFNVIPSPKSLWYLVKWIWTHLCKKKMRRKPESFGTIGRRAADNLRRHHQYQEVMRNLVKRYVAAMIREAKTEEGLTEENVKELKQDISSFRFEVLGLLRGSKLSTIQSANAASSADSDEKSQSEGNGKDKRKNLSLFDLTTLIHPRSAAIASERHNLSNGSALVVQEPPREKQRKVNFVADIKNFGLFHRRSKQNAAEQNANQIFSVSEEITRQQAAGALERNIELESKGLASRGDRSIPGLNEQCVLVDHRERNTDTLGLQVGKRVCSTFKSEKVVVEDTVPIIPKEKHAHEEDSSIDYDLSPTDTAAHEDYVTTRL

[15] = molecular target: Delta-type opioid receptor (Homo sapiens, UniProt P41143); assay: Counterscreen for agonists of heterodimerization of the mu 1 (OPRM1) and delta 1 (OPRD1) opioid receptors: Luminescence-based cell-based high throughput dose response assay to identify agonists of OPRD1 homodimerization. [Related pubchem assays (depositor defined):AID504326, AID504355, AID504692, AID504904, AID504905]; type: functional
Mu-type opioid receptor = Mu-type opioid receptor (Homo sapiens, UniProt P35372); assay: Counterscreen for agonists of heterodimerization of the mu 1 (OPRM1) and delta 1 (OPRD1) opioid receptors: Luminescence-based cell-based high throughput dose response assay to identify agonists of OPRM1 homodimerization.; type: functional;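 further: U2OS cells expressing OPRM1 and beta-arrestin as split beta-galactosidase partners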
Escherichia coli = assay: microbe, parasite or virus in culture

T2 sequence (Q9UBE0 whole entry): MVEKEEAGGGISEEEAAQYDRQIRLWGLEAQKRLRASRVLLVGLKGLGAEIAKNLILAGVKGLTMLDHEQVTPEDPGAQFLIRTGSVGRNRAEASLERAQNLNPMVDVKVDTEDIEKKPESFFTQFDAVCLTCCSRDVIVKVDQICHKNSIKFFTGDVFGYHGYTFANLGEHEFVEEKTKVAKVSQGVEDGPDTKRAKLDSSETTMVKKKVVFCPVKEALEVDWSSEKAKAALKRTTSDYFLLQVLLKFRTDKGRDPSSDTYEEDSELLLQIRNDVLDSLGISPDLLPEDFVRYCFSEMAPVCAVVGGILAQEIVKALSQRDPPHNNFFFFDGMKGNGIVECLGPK
T2 sequence (Q9UBT2 whole entry): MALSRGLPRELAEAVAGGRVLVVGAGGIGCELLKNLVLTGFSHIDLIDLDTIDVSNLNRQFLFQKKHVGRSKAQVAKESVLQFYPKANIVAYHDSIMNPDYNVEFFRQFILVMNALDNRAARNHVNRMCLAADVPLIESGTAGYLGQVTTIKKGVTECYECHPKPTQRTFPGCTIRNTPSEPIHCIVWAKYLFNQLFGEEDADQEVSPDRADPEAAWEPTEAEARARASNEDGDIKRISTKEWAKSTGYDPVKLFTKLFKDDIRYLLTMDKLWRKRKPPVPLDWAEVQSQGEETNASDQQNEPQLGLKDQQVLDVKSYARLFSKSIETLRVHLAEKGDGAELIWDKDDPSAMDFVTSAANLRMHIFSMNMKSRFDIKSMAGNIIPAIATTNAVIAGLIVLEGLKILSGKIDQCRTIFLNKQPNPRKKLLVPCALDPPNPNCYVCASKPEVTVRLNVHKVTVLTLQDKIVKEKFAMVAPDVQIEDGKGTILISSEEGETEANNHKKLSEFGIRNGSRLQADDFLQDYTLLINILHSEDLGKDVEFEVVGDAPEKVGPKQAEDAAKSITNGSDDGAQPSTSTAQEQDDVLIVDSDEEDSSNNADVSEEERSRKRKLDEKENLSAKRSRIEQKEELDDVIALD
T4 sequence (P49327 whole entry): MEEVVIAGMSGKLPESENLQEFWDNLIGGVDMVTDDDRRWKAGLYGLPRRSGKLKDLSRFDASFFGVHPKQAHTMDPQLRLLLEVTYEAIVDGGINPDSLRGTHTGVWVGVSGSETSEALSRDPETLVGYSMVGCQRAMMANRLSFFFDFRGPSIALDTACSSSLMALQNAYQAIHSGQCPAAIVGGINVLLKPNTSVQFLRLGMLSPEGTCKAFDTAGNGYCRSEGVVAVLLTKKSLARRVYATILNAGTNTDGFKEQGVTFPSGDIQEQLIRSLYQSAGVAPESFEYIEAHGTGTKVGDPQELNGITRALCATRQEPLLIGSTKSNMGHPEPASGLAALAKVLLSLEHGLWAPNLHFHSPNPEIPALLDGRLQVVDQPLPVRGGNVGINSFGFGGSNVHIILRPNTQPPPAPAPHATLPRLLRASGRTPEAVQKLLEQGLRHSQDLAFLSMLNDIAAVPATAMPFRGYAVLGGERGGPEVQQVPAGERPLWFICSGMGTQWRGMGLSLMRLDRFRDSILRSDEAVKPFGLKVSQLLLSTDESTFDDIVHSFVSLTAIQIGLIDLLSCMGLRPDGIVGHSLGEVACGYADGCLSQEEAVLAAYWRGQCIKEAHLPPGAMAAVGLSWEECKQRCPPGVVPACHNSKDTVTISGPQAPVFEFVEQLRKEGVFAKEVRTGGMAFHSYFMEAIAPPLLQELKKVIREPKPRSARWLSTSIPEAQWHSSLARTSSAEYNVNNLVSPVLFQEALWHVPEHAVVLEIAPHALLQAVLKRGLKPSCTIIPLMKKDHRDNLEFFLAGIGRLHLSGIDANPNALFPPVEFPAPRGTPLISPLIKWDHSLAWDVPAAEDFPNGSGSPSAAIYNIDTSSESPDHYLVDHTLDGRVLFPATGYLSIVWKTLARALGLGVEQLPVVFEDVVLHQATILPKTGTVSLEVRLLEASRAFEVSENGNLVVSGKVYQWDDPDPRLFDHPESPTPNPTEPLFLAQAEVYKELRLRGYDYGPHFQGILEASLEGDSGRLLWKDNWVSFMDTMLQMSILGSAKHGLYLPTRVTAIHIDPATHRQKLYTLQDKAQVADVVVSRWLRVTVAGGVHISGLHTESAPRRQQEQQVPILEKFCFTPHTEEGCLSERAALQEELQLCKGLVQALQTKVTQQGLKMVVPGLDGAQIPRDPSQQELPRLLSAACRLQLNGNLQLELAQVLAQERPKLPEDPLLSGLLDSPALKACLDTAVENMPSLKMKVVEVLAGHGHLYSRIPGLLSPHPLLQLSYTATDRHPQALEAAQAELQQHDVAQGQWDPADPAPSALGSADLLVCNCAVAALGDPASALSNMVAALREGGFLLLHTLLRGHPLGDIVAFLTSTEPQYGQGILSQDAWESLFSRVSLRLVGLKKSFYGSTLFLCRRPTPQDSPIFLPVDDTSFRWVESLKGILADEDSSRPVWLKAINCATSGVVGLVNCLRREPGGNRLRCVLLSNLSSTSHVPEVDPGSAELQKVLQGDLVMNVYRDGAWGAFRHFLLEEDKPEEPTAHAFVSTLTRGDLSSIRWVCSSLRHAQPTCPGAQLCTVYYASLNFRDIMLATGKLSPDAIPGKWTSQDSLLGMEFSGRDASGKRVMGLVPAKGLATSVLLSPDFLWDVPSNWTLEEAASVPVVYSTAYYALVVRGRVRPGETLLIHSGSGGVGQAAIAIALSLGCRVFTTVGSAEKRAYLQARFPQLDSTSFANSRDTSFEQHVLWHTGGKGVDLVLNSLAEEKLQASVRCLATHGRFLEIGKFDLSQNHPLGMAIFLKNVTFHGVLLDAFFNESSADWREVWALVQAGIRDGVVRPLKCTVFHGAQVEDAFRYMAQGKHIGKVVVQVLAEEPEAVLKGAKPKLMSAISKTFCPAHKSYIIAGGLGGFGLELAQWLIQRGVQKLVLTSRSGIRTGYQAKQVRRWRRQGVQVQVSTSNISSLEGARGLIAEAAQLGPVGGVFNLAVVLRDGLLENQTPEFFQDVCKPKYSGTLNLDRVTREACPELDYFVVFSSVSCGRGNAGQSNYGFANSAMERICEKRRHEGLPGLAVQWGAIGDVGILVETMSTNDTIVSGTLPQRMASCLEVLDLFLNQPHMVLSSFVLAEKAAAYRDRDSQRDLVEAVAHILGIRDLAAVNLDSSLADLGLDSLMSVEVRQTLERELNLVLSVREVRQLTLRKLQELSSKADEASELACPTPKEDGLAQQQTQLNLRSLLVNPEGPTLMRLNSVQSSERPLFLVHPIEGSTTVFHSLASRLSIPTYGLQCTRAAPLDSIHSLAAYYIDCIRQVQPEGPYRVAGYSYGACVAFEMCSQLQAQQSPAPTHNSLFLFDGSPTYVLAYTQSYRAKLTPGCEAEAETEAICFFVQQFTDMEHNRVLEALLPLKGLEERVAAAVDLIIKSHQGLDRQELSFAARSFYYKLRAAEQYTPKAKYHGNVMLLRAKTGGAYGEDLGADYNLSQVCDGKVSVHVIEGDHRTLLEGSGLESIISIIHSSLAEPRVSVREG
Chain of Delta-type opioid receptor (P41143 whole entry): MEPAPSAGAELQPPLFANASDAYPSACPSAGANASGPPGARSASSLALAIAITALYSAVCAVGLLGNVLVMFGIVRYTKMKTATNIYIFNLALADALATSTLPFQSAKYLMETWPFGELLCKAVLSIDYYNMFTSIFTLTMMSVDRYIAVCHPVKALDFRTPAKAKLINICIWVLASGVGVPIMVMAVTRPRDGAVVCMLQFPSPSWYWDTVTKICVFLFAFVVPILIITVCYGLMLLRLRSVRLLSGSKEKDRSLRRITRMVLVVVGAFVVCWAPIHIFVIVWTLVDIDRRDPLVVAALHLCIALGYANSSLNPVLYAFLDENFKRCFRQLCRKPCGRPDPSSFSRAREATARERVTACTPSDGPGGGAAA
Chain of 5-hydroxytryptamine receptor 5A (P47898 whole entry): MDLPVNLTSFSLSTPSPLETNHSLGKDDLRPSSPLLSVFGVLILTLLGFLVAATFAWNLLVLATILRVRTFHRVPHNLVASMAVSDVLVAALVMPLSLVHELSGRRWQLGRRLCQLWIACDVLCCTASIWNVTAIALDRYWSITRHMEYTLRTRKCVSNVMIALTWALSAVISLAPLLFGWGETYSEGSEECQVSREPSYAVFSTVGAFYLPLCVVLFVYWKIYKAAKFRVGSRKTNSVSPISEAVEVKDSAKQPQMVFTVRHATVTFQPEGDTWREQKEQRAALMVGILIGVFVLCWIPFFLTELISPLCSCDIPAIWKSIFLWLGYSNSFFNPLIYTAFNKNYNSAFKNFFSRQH
Chain of Mu-type opioid receptor (P35372 whole entry): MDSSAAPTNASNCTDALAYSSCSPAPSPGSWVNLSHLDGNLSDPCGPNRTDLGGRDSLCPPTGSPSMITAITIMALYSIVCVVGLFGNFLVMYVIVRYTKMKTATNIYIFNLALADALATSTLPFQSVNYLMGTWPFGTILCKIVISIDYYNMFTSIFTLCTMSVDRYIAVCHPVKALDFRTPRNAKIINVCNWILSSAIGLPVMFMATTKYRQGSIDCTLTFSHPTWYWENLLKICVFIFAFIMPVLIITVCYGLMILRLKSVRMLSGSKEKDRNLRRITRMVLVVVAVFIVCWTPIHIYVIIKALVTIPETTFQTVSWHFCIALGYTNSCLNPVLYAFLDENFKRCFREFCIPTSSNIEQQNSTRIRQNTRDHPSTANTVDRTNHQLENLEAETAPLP

## CC1(C)COC(/C=C/c2cccc([N+](=O)[O-])c2)=N1
Vero [1]
  CC50: 15.1 µM (active)
Vero [2]
  IC50: 21.5 µM (active)
Vero [3]
  CC50: 12.6 µM (active)
[4]
  CC50: 9.78 µM (active)

## COc1cc2nc(N3CCN(C(=O)[C@H]4COc5ccccc5O4)CC3)nc(N)c2cc1OC.CS(=O)(=O)O
Cytochrome P450 1A2
  AC50: inactive
Cytochrome P450 2C19
  AC50: inactive

## O=C(O)CN1C(=O)/C(=C/c2ccc(SCc3ccccc3)o2)SC1=S
SUMO-activating enzyme [5]
  IC50: 4.13 µM (active)
[6]
  IC50: > 50 µM (not active)
SUMO-activating enzyme [7]
  IC50: 15.5 µM (active)

## CCc1cccc(CC)c1NC(=O)/C(C#N)=C/c1ccccc1C(F)(F)F
Fatty acid synthase [8]
  IC50: 7.72 µM (active)
HEK293 [9]
  EC50: > 59.6 µM (inactive)
Protein RecA
  EC50: 11.7 µM (active)
HEK293 [10]
  EC50: > 59.6 µM (inactive)
[11]
  AC50: 4.45 µM (active)
Fatty acid synthase [12]
  IC50: 4.74 µM (active)

## CCOC(=O)C1(CC2CCCCO2)CCN(Cc2c(C)cc(C)cc2-n2cccn2)CC1 (stereo not given)
[13]
  EC50: > 92.5 µM (inactive)
[14]
  EC50: 0.0293 µM (active)
[15]
  EC50: > 92.5 µM (inactive)
Mu-type opioid receptor
  EC50: 15.5 µM (inactive)

## CCCCOCC1CN(c2ccccc2)C(=O)CS1 (stereo not given)
Escherichia coli
  AC50: 20.9 µM (active)
